Test results reported in patent US20100086520A1, “Compositions, Kits and Uses For Protecting The Skin Against Pathogenic Microorganisms” (OrganoBalance GmbH, priority 2006, published 2010).
Bridge positions count the residues as written; N and C are the ends. Square brackets hold non-standard residues; d marks the D form. Peptide text beside a SMILES is read from it. * marks the point of attachment. Ileψ(thiazoline)Cys = CC[C@H](C)[C@H](N)C1=N[C@H](C(=O)*)CS1; dOrn = NCCC[C@@H](N)C(=O)O

Experiments:
[1] = tested on: resident flora; conditions: infants, after treatment with the antibiotic; cited from earlier work
[2] = tested on: Candida albicans; conditions: in vivo; cited from earlier work
[3] = tested on: Staphylococcus aureus (DSM346); experiment: in-vitro-hole plate assay, growth inhibition of S. aureus in comparison to bacitracin and erythromycin (Example 12); type: cell-based; conditions: BHI agar, pre-cut holes; antibiotics at different concentrations, defined numbers of Lactobacillus cells; FIG. 10A/10B
Description: The degree of growth inhibition of the microorganism(s) of the transient pathogenic skin micro flora in comparison to the inhibition of growth of at least one such microorganism after the use of an antibiotic can preferably be observed in vitro, more preferably in an assay in which a microorganism according to aspect (ii) of the invention, as described herein above, is contacted with one or more microorganisms of the transient pathogenic skin micro flora and the growth of the(se) microorganism(s) of the transient pathogenic skin micro flora is determined. Most preferably, the comparison of growth inhibition can be determined in an “in vitro hole plate assay” as described in the Examples and mentioned herein above. […]
This effect has been compared to commercial antibiotic cream preparations of bacitracin and erythromycin. […] The diameter of the inhibition zones has been measured and the area of inhibition has been calculated thereof. […]

| Molecule | repression of the resident flora [1] | increase of the pathogenic yeast Candida albicans [2] | growth inhibition of the indicator strain S. aureus (inhibition zone, area of inhibition) [3] |
| --- | --- | --- | --- |
| CC1(C)S[C@@H]2[C@H](NC(=O)[C@H](N)c3ccc(O)cc3)C(=O)N2[C@H]1C(=O)O [amoxicillin] | about 50% | more than a fourteen-fold increase | – |
| CC[C@H](C)[C@H](N)C1=N[C@H](C(=O)N[C@@H](CC(C)C)C(=O)N[C@H](CCC(=O)O)C(=O)N[C@H](C(=O)N[C@H]2CCCCNC(=O)[C@H](CC(N)=O)NC(=O)[C@@H](CC(=O)O)NC(=O)[C@H](Cc3cnc[nH]3)NC(=O)[C@@H](Cc3ccccc3)NC(=O)[C@H]([C@@H](C)CC)NC(=O)[C@@H](CCCN)NC2=O)[C@@H](C)CC)CS1 [bacitracin] ({Ileψ(thiazoline)Cys}-L[dE]IK[dOrn]I[dF]H[dD]N; lactam 4-C) | – | – | growth inhibition of the indictator strain S. aureus has been observed |
| CC[C@H]1OC(=O)[C@H](C)[C@@H](O[C@H]2C[C@@](C)(OC)[C@@H](O)[C@H](C)O2)[C@H](C)[C@@H](O[C@@H]2O[C@H](C)C[C@H](N(C)C)[C@H]2O)[C@](C)(O)C[C@@H](C)C(=O)[C@H](C)[C@@H](O)[C@]1(C)O [erythromycin] | – | – | growth inhibition of the indictator strain S. aureus has been observed |
| Lactobacillus delbrückii ssp. delbrückii OB-LB-Sa3 | – | – | growth inhibition of S. aureus |
